{"source": "paper PMC6691401", "about": "(Journal of Medicinal Chemistry, 2019)", "key": {"[1]": {"biological_target": "T1, Mab TrmD (Mycobacteroides abscessus, UniProt B1MDI3)", "parameters": "method as in PMID 32602532", "conditions": "cited from earlier work; for thermal shift (ΔTm): 5 mM ligand; for ΔTm: Table 3, 5 mM ligand and 10 μM Mab TrmD"}, "[2]": {"biological_target": "T1, Mab TrmD", "experiment": "Differential scanning fluorimetry (DSF) thermal shift", "format": "binding", "conditions": "5 mM ligand"}, "[3]": {"biological_target": "T1, Mab TrmD", "experiment": "Isothermal titration calorimetry (ITC)", "format": "binding", "conditions": "for GE (R^1): group efficiency of R^1; for LE: ligand efficiency"}, "[4]": {"biological_target": "T1, Mab TrmD", "experiment": "Native mass spectrometry of ligand binding", "conditions": "20 μM Mab TrmD, 100 μM ligand, 5% DMSO", "experimental": "Native nanoelectrospray ionization mass spectrometry spectra were recorded on a Synapt HDMS mass spectrometer (Waters, Manchester, UK) modified for studying high masses. Mab TrmD was exchanged into 200 mM ammonium acetate (pH 7.0) solution using Micro Bio-Spin 6 chromatography columns (Bio-Rad, UK). Protein samples were equilibrated at room temperature in the absence or presence of the indicated concentrations of ligands for at least 15 min before analysis. Protein solution (2.5 μL) was injected into a gold-coated borosilicate emitter (Thermo Scientific, UK) for sampling. Typical conditions were capillary voltage 1.5 kV, cone voltage 50 V, trap collision voltage 20 V, transfer collision voltage 20 V, source temperature 20 °C, backing pressure 3–4 mbar, trap pressure 3–4 × 10^–2 mbar, IM (N2) pressure 5–6 × 10^–1 mbar and TOF pressure 7–8 × 10^–7 mbar. All mass spectra were calibrated externally with caesium iodide (10 mg/mL). Data acquisition and processing were performed using MassLynx 4.1 (Waters)."}, "[5]": {"biological_target": "T1, Mab TrmD", "conditions": "ligand efficiency, previously reported, cited from earlier work"}, "[6]": {"biological_target": "the molecule itself", "experiment": "native MS; nanoelectrospray, Mab TrmD exchanged into 200 mM ammonium acetate pH 7.0, room temperature, protein alone (dimer also seen with 5% DMSO and with ligands)"}}, "note": "Where two headings read alike, the source gives them in different places."}
{"molecule": "Cc1ccc(-c2cc(N)[nH]n2)cc1", "note": "[Compound 18, 5-(p-tolyl)-1H-pyrazol-3-amine]", "values": [{"measurement": "thermal shift (ΔTm)", "setting": "[1]", "result": "1.4–1.5 °C"}, {"measurement": "ΔTm", "setting": "[1]", "result": "+1.4 °C"}]}
{"molecule": "COc1cccc(-c2cc(N)n[nH]2)c1", "note": "[Compound 19, 5-(3-Methoxyphenyl)-1H-pyrazol-3-amine]", "values": [{"measurement": "thermal shift (ΔTm)", "setting": "[2]", "result": "negative thermal shift"}]}
{"molecule": "Nc1cc(-c2ccc3ccn(Cc4ccccc4)c3c2)[nH]n1", "note": "[Compound 24c, 5-(1-Benzyl-1H-indol-6-yl)-1H-pyrazol-3-amine]", "values": [{"measurement": "GE (R^1)", "setting": "[3]; Table 4", "result": "0.15 kcal mol^–1 per heavy atom"}, {"measurement": "LE", "setting": "[3]; Table 4", "result": "0.29 kcal mol^–1 per heavy atom"}, {"measurement": "GE", "setting": "[3]; group efficiency of the added group", "result": "0.15 kcal mol^–1 per heavy atom"}, {"measurement": "LE", "setting": "[3]", "result": "0.29 kcal mol^–1 per heavy atom"}, {"measurement": "binding to Mab TrmD dimer observed by native MS", "setting": "[4]", "result": "entirely doubly bound"}]}
{"molecule": "N#Cc1c(N)n[nH]c1-c1ccc2ccn(Cc3ccc(CN4CCCC4)cc3)c2c1", "note": "[Compound 29a, 3-Amino-5-(1-(4-(pyrrolidin-1-ylmethyl)benzyl)-1H-indol-6-yl)-1H-pyrazole-4-carbonitrile]", "values": [{"measurement": "binding to Mab TrmD dimer observed by native MS", "setting": "[4]", "result": "low gas-phase stabilities"}, {"measurement": "LE", "setting": "[5]; Table 6", "result": "0.34 kcal mol^–1 per heavy atom"}, {"measurement": "LE", "setting": "[5]", "result": "0.34 kcal mol^–1 per heavy atom"}]}
{"molecule": "O=C(O)c1ccc2cc[nH]c2c1", "note": "[Compound 21, 1H-indole-6-carboxylic acid]", "values": [{"measurement": "thermal shift (ΔTm)", "setting": "[1]", "result": "no ΔTm observed"}, {"measurement": "ΔTm", "setting": "[1]", "result": "–0.6 °C"}]}
{"molecule": "OB(O)c1ccc2cc[nH]c2c1", "note": "[Compound 20, (1H-indol-6-yl)boronic acid]", "values": [{"measurement": "ΔTm", "setting": "[1]", "result": "+4.0 °C"}, {"measurement": "LE", "setting": "[5]; Table 3", "result": "0.41 kcal mol^–1 per heavy atom"}, {"measurement": "LE", "setting": "[5]", "result": "0.41 kcal mol^–1 per heavy atom"}]}
{"molecule": "Nc1cc(-c2ccc3ccn(Cc4ccccn4)c3c2)[nH]n1", "note": "[Compound 24f, 5-(1-(Pyridin-2-ylmethyl)-1H-indol-6-yl)-1H-pyrazol-3-amine]", "values": [{"measurement": "GE (R^1)", "setting": "[3]; Table 4", "result": "0.18 kcal mol^–1 per heavy atom"}, {"measurement": "LE", "setting": "[5]; Table 4", "result": "0.30 kcal mol^–1 per heavy atom"}, {"measurement": "LE", "setting": "[5]", "result": "0.30 kcal mol^–1 per heavy atom"}]}
{"molecule": "COc1ccc(-c2cc(N)[nH]n2)cc1", "note": "[Compound 16, 5-(4-methoxyphenyl)-1H-pyrazol-3-amine]", "values": [{"measurement": "ΔTm", "setting": "[1]", "result": "+3.0 °C"}, {"measurement": "LE", "setting": "[5]; Table 3", "result": "0.37 kcal mol^–1 per heavy atom"}, {"measurement": "LE", "setting": "[5]", "result": "0.37 kcal mol^–1 per heavy atom"}]}
{"molecule": "Nc1cc(-c2ccccc2)n[nH]1", "note": "[Compound 17, 5-phenyl-1H-pyrazol-3-amine]", "values": [{"measurement": "thermal shift (ΔTm)", "setting": "[1]", "result": "1.4–1.5 °C"}, {"measurement": "ΔTm", "setting": "[1]", "result": "+1.5 °C"}]}
{"molecule": "CCNC(=O)c1cn[nH]c1", "note": "[Compound 2, N-Ethyl-1H-pyrazole-4-carboxamide]", "values": [{"measurement": "ΔTm", "setting": "[2]", "result": "< 0.5", "unit": "°C"}]}
{"molecule": "Mycobacterium abscessus tRNA (m1G37) methyltransferase (TrmD) (enzyme, UniProt B1MDI3 1-242, looked up) MKIDVVTIFPEYLQPVRQSLPGKAIDAGLVDVAVHDLRRWTHDVHKSVDDSPYGGGPGMVMKPTVWGDALDEICTSETLLVVPTPAGYPFTQETAWQWSTEDHLVIACGRYEGIDQRVADDAATRMRVREVSIGDYVLNGGEAAALVIIEAVLRLVPGVLGNALSAQEDSHSEGMASLLEGPSYTRPPSWRGMDVPPVLLSGDHAKIAAWRAEQSRQRTIERRPDLLGFDSPTGEHGGDGLS", "values": [{"measurement": "stoichiometry N", "setting": "[6]", "result": 2}]}
